Data set [1] relates to Escherichia coli NBIMCC K12 407. The settings on record: broth microdilution, 0–320 µg/mL, 24 h; NI = no inhibition monitored. As for the experimental part:
(§1) The antimicrobial activity of the 7 new analogs of aurein 1.2 was evaluated by determining the MIC and MBC against Gram-positive strain Bacillus subtilis 3562 and Gram-negative strain Escherichia coli K12 407. The MIC of the newly synthesized analogs was assessed by applying a broth microdilution method, whereas their MBC was determined by using a spread plate method. All experiments were performed in triplicate.
(§2) Bacillus subtilis NBIMCC 3562 and Escherichia coli NBIMCC K12 407 were used as test microorganisms and were purchased from the National Bank for Industrial Microorganisms and Cell Cultures (NBIMCC, Sofia, Bulgaria). Exponential cultures were obtained in Nutrient broth (NB, HiMedia, Mumbai, India) for B. subtilis NBIMCC 3562 and Luria-Bertani (LB, HiMedia, Mumbai, India) for E. coli NBIMCC K12 407, after cultivation in an incubator shaker ES-20/60 (Biosan, Latvia) at 30/37 °C for 24 h. Then, the turbidity of the microbial cultures was adjusted to the 0.5 McFarland standard using a Grant Bio DEN-1B Densitometer (Grant Instruments, Royston, UK).
(§3) The antimicrobial activity of the obtained aurein 1.2 analogs was evaluated using the broth microdilution method, recommended by the Clinical and Laboratory Standards Institute (CLSI), to determine the minimum inhibitory concentration (MIC) of the peptides against B. subtilis NBIMCC 3562 and E. coli NBIMCC K12 407. All peptides were previously dissolved in 10% EtOH/H2O, and their 10 mg/mL stock solutions were stored at −20 °C. Bacterial cultures, previously adjusted to 0.5 McFarland standard, were incubated in the presence of different peptide concentrations (0–320 µg/mL) in 96-well polystyrene microplates (Deltalab S.L., Barcelona, Spain) at 30/37 °C for 24 h. The lowest concentration of each peptide, which inhibited bacterial growth, was considered as MIC. In addition, a drop of 20 µL of the 24 h inhibitory concentration test samples was spotted on the corresponding solid media to determine the minimum bactericidal concentration (MBC). […] All experiments were performed in triplicate.

Data set [2] deals with Bacillus subtilis NBIMCC 3562. Conditions: 0–320 µg/mL, NI = no inhibition monitored. As for the experimental part:
as §1, §2, §3

A short description of data set [3]: BALB 3T3 Neutral Red Uptake cytotoxicity/phototoxicity test. Conditions: mouse, Mean CC50 ± SD, BALB 3T3 cells. The procedure:
(§4) An in vitro BALB 3T3 Neutral Red Uptake assay was used to determine the cytotoxicity/phototoxicity of the peptides. Cytotoxicity of peptide analogs was calculated as a percentage relative to the negative control. […] Photo irritation factor (PIF) was used to assess the phototoxic potential of the peptide analogs. The PIF factor represents the ratio between the CC50 values of dark (non-irradiated or—Irr) and irradiated (+Irr) microplates, PIF = (CC50 − Irr)/(CC50 + Irr).
(§5) Mouse embryonic fibroblasts (BALB 3T3) were used to perform the cytotoxicity and phototoxicity tests. The tests were performed by OECD Guidelines for the Testing of Chemicals, Section 4, Test No. 432. Cells were plated at 1 × 10^4 cells/well in 96-well plates. Cells were incubated in a thermostat for 24 h. Then, the test peptides were added at various working concentrations (4–1000 μM). In the phototoxicity test, 96-well plates were irradiated with a dose of 2.4 J/cm^2 using a solar light simulator Helios-iO (SERIC Ltd., Tokyo, Japan). Cell viability was measured using the BALB 3T3 neutral red uptake test. Cytotoxicity is presented as % relative to the negative control.

Another data set concerns BALB 3T3 cells. The description is as above. Conditions: PIF = (CC50 −Irr)/(CC50 +Irr); PIF < 2 not phototoxic, 2 < PIF < 5 possible phototoxicity, PIF > 5 phototoxic. The procedure:
as §4, §5

Another data set concerns MDA-MB-231. As to the kind of experiment: cells. Conditions: read-out: Mean IC50 ± SD, MDA-MB-231; MTT, 72 h. The procedure:
(§6) The peptides were studied for antiproliferative activity with an MTT-dye reduction assay. Cell cultures were incubated with the test peptides in twofold increasing concentrations (from 2 to 500 μM) for 72 h.
(§7) The antiproliferative activity of the peptides was determined in normal epithelial cells (MCF-12F) and tumor cells (MCF-7 and MDA-MB-231) by MTT-assay. Cells were plated 1 × 10^3 cells/100 µL/well of 96-well plates and incubated in a thermostat under standard conditions for 24 h. Cells were then incubated with the tested peptide analogs for 72 h in different concentrations (from 2 to 500 µM). The optical density of the formazan was measured at λ = 540 nm using a microplate reader. Antiproliferative activity was expressed as % from negative control. […] The statistical analysis of the results was performed using one-way ANOVA followed by Bonferroni’s post hoc test by GraphPad Prism 8 software (San Diego, CA, USA).

For a further data set, the system named is MCF-12F. As to the kind of experiment: cells. The settings on record: read-out: Mean IC50 ± SD, MCF-12F; MTT, 72 h, normal cell line. As for the experimental part:
as §6, §7

A further data set relates to MCF-7. Briefly: cells. Conditions: read-out: Mean IC50 ± SD, MCF-7; MTT, 72 h. The procedure:
as §6, §7

Molecules are shown by their SMILES. Values after ≈ are worked out from the molar mass of the structure shown. Where a SMILES comes first, the peptide text is derived from it. [ ]: non-standard residue; d: D form. Orn = NCCC[C@H](N)C(=O)O

On to `CC[C@H](C)[C@H](NC(=O)[C@H](CCCN)NC(=O)[C@H](CCCN)NC(=O)[C@@H](NC(=O)[C@@H](NC(=O)[C@H](CC(=O)O)NC(=O)[C@H](Cc1ccccc1)NC(=O)[C@H](CC(C)C)NC(=O)CN)[C@@H](C)CC)[C@@H](C)CC)C(=O)N[C@@H](C)C(=O)N[C@@H](CCC(=O)O)C(=O)N[C@@H](CO)C(=O)N[C@@H](Cc1ccccc1)C(N)=O` [EH [Orn]^7,8, Gly-Leu-Phe-Asp-Ile-Ile-Orn^7-Orn^8-Ile-Ala-Glu-Ser-Phe-NH2] (H-GLFDII[Orn][Orn]IAESF-NH2), for which the “MIC, Escherichia coli NBIMCC K12 407” value in data set [1] came out at 80 µg/mL (≈ 55.1 µM). The “MBC, Bacillus subtilis NBIMCC 3562” value in data set [2] is recorded as 320 µg/mL (≈ 220 µM). Also, in data set [2] (broth microdilution, 24 h), the “MIC, Bacillus subtilis NBIMCC 3562” value stood at 80 µg/mL (≈ 55.1 µM). For the same compound, the CC50 (usually the concentration giving 50% cytotoxicity) came to 101 ± 3.7 µM in data set [3] (+Irr, irradiated 2.4 J/cm^2, NRU) and 157 ± 6.38 µM in data set [3] (−Irr, non-irradiated (dark), NRU). The “PIF (Photo Irritation Factor)” value in the data set with BALB 3T3 cells was determined as 1.55. The IC50 (in general, the concentration at which inhibition is half-maximal) in the data set with MDA-MB-231 came out at 123 ± 6.47 µM; in the data set on MCF-12F, 112 ± 7.14 µM; in the data set with MCF-7, 88.9 ± 3.14 µM.

(Values after PMC12074479, “Design, Synthesis, and Biological Evaluation of New Analogs of Aurein 1.2 Containing Non-Proteinogenic Amino Acids” (Molecules, 2025).)
